{"source": "patent US20220016080A1", "about": "“COMPOUNDS THAT SELECTIVELY AND EFFECTIVELY INHIBIT HAKAI-MEDIATED UBIQUITINATION, AS ANTI-CANCER DRUGS” (FUNDACIÓN PROFESOR NOVOA SANTOS, priority 2018, published 2022)", "key": {"[1]": {"test_system": "ubiquitination in 293T cells", "assay": "Ubiquitination assay in 293T cells transfected with v-Src and HA-ubiquitin (Hakai not overexpressed)", "type": "cell-based", "method": "Six hours after transfection cells were treated with indicated concentrations of Hakin-1, Hakin-5 or the rest of the analogues tested for 36 h. Whole cell extracts were obtained in lysis buffer (20 mM Tris-HCl pH 7.5, 150 mM NaCl and 1% Triton X-100) containing 10 μg/ml leupeptin, 10 μg/ml aprotinin and 1 mM phenylmethanesulphonyl fluoride (PMSF), supplemented with 10 mM N-ethylmaleimide. Cells were harvested and subjected to western blotting using anti-HA antibody to detect ubiquitination."}, "[2]": {"test_system": "HT-29 colon tumour cell line", "assay": "MTT cell viability assay, HT29", "type": "cell-based", "conditions": "72 h, analogues at 50-500 μM", "method": "For cytotoxicity assays, 1×10^4 cells were seeded per well into a 96-well plate. After 24 h cells were treated with the indicated inhibitors for 72 h and a MTT colorimetric cell viability assay was performed following manufacturer's instructions (Sigma Aldrich, St Louis, Mo.). Absorbance was measured at 570 and 630 nm using a Multiskan Plus Reader (Nanoquant Infinite M200 Tecan Trading AG, Switzerland). Dose-response curves were designed with Graph Pad Prism Software and the half-maximal inhibitory concentration (IC50) values were calculated. Represented data are the mean±SEM of at least three independent experiments with six replicates per condition."}, "[3]": {"test_system": "Hakai-transformed MDCK cells", "assay": "Phase-contrast cell phenotype, Hakai-MDCK", "type": "cell-based", "method": "MDCK, HEK293T, HepG2, MCF7 and ACHN cells were cultured in Dulbecco's Modified Eagles Medium (DMEM). MDCK stably expressing Hakai cells (Hakai-MDCK) were previously reported and were growth in DMEM with G418 (800 μg/ml). […] LoVo and PC-3 cells were cultured in F-12K Medium (Kaighn's Modification of Ham's F-12 Medium) and HT-29 cells in McCoy's 5a Medium Modified. 5637 cells were cultured in RPMI medium. All culture media were supplemented with 1% penicillin/streptomycin and 10% of heat-inactivated fetal bovine serum (FBS) at 37° C. in a humidified incubator with 5% CO2. Cells were monthly tested for mycoplasma contamination and used only for 1-3 months after defrosted. LoVo and HT29 cells were authenticated with the StemElite ID system (Promega). For phase-contrast images, culture cells were photographed with a Nikon Eclipse-TI microscope."}, "[4]": {"test_system": "Hakai-MDCK cells", "assay": "E-cadherin protein levels, Hakai-MDCK", "type": "cell-based", "conditions": "mesenchymal Hakai-MDCK cells, no basal E-cadherin", "method": "(§1) For western blot analysis, cells were treated with the indicated inhibitors for 48 h and the whole cell extracts were obtained as described previously. Twenty micrograms of lysates were resolved on a 10% polyacrilamide SDS-PAGE followed by western blot analysis performed as previously described. For immunofluorescence assays cells were grown for 24 h on glass coverslips and treated with the indicated inhibitors for 48 h. Cells were fixed with 4% PFA for 15 min, permeabilized with 0.5% […] and incubated with E-cadherin antibody for 2 h. Coverslips were incubated with fluorescein-tagged secondary antibody (Dakopatts, Sweden) for […]. Finally coverslips were mounted with ProLong Gold antifade reagent (LifeTech, UK) and images were taken in epifluorescence microscope (Olympus) using 40× objective."}, "[5]": {"test_system": "HT-29 cells", "assay": "Immunofluorescence of E-cadherin, HT-29", "type": "cell-based", "conditions": "48 h", "method": "as §1"}, "[6]": {"test_system": "HT29 cells", "assay": "BrdU proliferation assay, HT29", "type": "cell-based", "conditions": "48 h", "method": "(§2) For BrdU assays, 1×10^4 of indicated cells were plated per well into a 96-well plate. After 24 h, cells were treated with the indicated inhibitors for 48 h. Three independent experiments were plated with six replicates per each condition. Cells were treated with […] BrdU for 2 h. BrdU incorporation into newly synthesized DNA was measured using a cell proliferation colorimetric immunoassay kit according to the manufacturer's instructions (Roche, Switzerland). Results are expressed as mean±S.D. Results are represented as percentage of positive cells (mean±S.D) of three independent experiments."}, "[7]": {"test_system": "prostate cancer PC-3 cells", "assay": "BrdU proliferation assay, PC-3", "type": "cell-based, human", "conditions": "48 h", "method": "as §2"}, "[8]": {"test_system": "bladder cancer 5637 cells", "assay": "BrdU proliferation assay, 5637", "type": "cell-based, human", "conditions": "48 h", "method": "as §2"}, "[9]": {"test_system": "liver cancer HepG2 cells", "assay": "BrdU proliferation assay, HepG2", "type": "cell-based, human", "conditions": "48 h", "method": "as §2"}, "[10]": {"test_system": "HT-29 cells", "assay": "Soft agar-colony formation assay, HT29", "type": "cell-based", "conditions": "28 days", "method": "(§3) Soft agar-colony formation assay was performed on 12-well plates in triplicates at a density of 5×10^3 MDCK and MDCK-Hakai cells/well, or 12×10^3 HT29 cells/well. Cells were seeded in medium with 0.5% low-melting agarose over a layer with 0.75% low-melting agarose (Lonza Rockland, Me., USA). Cells were treated with the indicated inhibitors and DMSO was used as vehicle. Treatment was refreshed every 3 days and, after 21 days for MDCK and MDCK-Hakai cells or 28 days for HT29 cells, number of colonies were quantified. Quantification of five randomly-selected fields of each condition was photographed with a Nikon Eclipse-TI microscope (objective 4×). Experiments were conducted with three triplicates and were repeated three times. Data are represented as mean±SD."}, "[11]": {"test_system": "Hakai-MDCK cells", "assay": "Soft agar-colony formation assay, Hakai-MDCK", "type": "cell-based", "conditions": "21 days", "method": "as §3"}, "[12]": {"test_system": "HT29 cells", "assay": "Migration assay, HT29", "type": "cell-based", "conditions": "HT-29; treated 48 h", "method": "For invasion assays, cells were treated with Hakin-1 or DMSO as vehicle for 48 h using 1% FBS during the last 24 hours. 3×10^5 MDCK, MDCK-Hakai or LoVo cells were seeded in a cell invasion chamber (Cell invasion assaykit, Chemicon International) containing medium with 2% FBS. After 72 hours for MDCK and MDCK-Hakai Invasive and 16 h for LoVo cells, invasive cells invaded that reach the lower chamber containing 30% FBS were fixed and stained with crystal violet (Sigma Aldrich, St Louis, Mo.) following the manufacturer's specifications. For migration assays, HT29 cells were cultured with Hakin-1 or DMSO as vehicle for 48 h, using medium without serum the last 24 h. In the cell migration chamber were seeded 3×10^5 HT29 cells (Cell migration kit, Millipore, Bedford, Mass.) containing medium without serum. After 16 h, migrated cells in the lower chamber containing serum with 30% FBS were stained with crystal violet and counted following the manufacturer's specifications. For both invasion and migration assays cells were counted in five fields photographed with an Olympus microscope using a 20× objective, experiments were performed in triplicates for each condition and the assays were repeated at least three times. Results are expressed as mean±SD."}}, "data": [{"compound": "O=C(O)c1ccc(-n2nnnc2SCC(=O)c2ccc([N+](=O)[O-])cc2)cc1", "note": "[Hakin-1, 4-(5-{[2-(4-nitrophenyl)-2-oxoethyl]thiol}-1H-tetrazol-1-yl)benzoic acid]", "values": [{"measurement": "ubiquitination when Hakai was not overexpressed", "setting": "[1]", "value": "did not affect ubiquitination"}, {"measurement": "cytotoxicity effect (cell viability, MTT)", "setting": "[2]", "value": "important inhibitory response"}, {"measurement": "mesenchymal phenotype (phase contrast)", "setting": "[3]", "value": "induction of an epithelial phenotype"}, {"measurement": "E-cadherin protein levels", "setting": "[4]", "value": "no recovery was detected"}, {"measurement": "E-cadherin levels at cell-cell contacts (immunofluorescence)", "setting": "[5]", "value": "significant increase E-cadherin levels at cell-cell contacts"}, {"measurement": "cell proliferation (BrdU)", "setting": "[6]", "value": "reduced cell proliferation"}, {"measurement": "cell proliferation (BrdU)", "setting": "[7]", "value": "inhibits cell proliferation"}, {"measurement": "cell proliferation (BrdU)", "setting": "[8]", "value": "inhibits cell proliferation"}, {"measurement": "cell proliferation (BrdU)", "setting": "[9]", "value": "inhibits cell proliferation"}, {"measurement": "colony formation (soft agar)", "setting": "[10]", "value": "robust inhibition of colony formation"}, {"measurement": "colony formation (soft agar)", "setting": "[11]", "value": "robust inhibition of colony formation"}, {"measurement": "cell migration", "setting": "[12]", "value": "important reduction of cell migration"}]}]}
